Patent publication US20140206681A1, “BTK INHIBITORS” (priority 2013, published 2014)

Tests used:
[1] = target: T1, BTK enzyme (recombinant full-length BTK, hBTK) (Homo sapiens, UniProt Q06187); assay: BTK enzyme activity assay, LANCE TR-FRET; type: biochemical; conditions: 50 pM hBTK, 2 μM biotin-A5-peptide, 25 μM ATP; 60 min compound & enzyme incubation; read-out: IC50 BTK activity value
T1 construct: recombinant protein from baculovirus-transfected Sf9 cells: full-length BTK, 6HIS-tag cleaved; 6HIS (cleaved yes); made in house; host or cells: baculovirus-transfected Sf9 cells
T1 sequence (Q06187 whole entry): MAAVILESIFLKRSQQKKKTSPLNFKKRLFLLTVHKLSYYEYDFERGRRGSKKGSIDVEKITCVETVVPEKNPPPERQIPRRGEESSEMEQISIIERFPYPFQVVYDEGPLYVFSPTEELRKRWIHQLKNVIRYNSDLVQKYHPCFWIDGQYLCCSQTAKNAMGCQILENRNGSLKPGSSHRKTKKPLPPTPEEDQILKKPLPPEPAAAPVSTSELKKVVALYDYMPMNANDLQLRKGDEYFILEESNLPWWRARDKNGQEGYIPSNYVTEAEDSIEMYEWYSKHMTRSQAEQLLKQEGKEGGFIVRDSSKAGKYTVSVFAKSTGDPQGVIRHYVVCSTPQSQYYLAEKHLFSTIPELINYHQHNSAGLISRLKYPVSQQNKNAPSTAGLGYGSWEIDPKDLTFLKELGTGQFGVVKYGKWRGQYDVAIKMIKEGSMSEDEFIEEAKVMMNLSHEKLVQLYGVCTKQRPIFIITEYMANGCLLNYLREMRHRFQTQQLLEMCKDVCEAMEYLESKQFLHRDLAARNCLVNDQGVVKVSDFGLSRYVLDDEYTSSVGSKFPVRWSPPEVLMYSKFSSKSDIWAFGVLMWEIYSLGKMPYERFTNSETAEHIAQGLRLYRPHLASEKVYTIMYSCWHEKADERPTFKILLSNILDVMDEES

[2] = system: HeLa cells; assay: [3H]Adenosine uptake functional cellular assay; type: cell-based; conditions: Homo sapiens, HeLa, accumulation of [3H]adenosine into HeLa cells; compound range 10 μM to […]; read-out: Adenosine uptake inhibition IC50
Experimental: Compounds are also screened in an adenosine uptake functional cellular assay using the protocol described below. The adenosine uptake inhibition assay may be used to identify compounds with the potential for a negative cardiovascular side effect.
Adenosine uptake activity was determined by monitoring the accumulation of tritiated adenosine into HeLa cells (ATCC catalog # CCL-2) using a PMT-based radiometric detection instrument. […] These cells were incubated overnight at 37° C. in a humidified atmosphere with 5% (v/v) CO2. After this time the growth medium was removed and replaced with 40 μL assay medium comprising: Hanks balanced salts solution (HBSS; Thermo Fisher Catalog # SH30268.01)+5% (v/v) FBS. […] 40 μL of compound in the assay medium was dispensed into individual wells of the Cytostar-T plates and the plates were incubated for 30 minutes under ambient laboratory conditions. Following this incubation, 20 μL of 500 nM [^3H]adenosine (American Radiolabeled Chemicals Inc. Catalog # ART0287) was added in the assay medium and incubated for a further 60 minutes under ambient laboratory conditions. The amount of radiolabel accumulation was then determined using a Perkin Elmer Topcount NXT microplate reader. In brief, HeLa cells adhere to the bottom of the Cytostar-T plate, uptake of [^3H]adenosine into these cells brings the radiolabel into sufficient proximity to excite the scintillant in the base of the plates. These events are captured by single PMT, time-resolved coincidence counting. IC50 values were determined by 4 parameter robust fit of counts per second values vs. (Log10) compound concentrations.

Row | IC50 [1] | IC50 [2] | Structure (SMILES)
1 | 0.0013 µM | 1.14 µM | C[C@@H]1OC(=N)N2C[C@H](c3nc(-c4ccc(C(=O)Nc5cc(C(F)(F)F)ccn5)cc4)c4c(N)nccn34)CC[C@@H]12 [Example 96, 4-{8-amino-3-[(1S,6R,8aS)-3-imino-1-methylhexahydro[1,3]oxazolo[3,4-a]pyridin-6-yl]imidazo[1,5-a]pyrazin-1-yl}-N-[4-(trifluoromethyl)pyridin-2-yl]benzamide]
2 | 0.0031 µM | 2.41 µM | CCOc1cc(C(=O)Nc2cc(C(F)(F)F)n(C)n2)ccc1-c1nc([C@@H]2CC[C@H]3CCC(=O)N3C2)n2c(F)cnc(N)c12 [Example 163, 4-{8-amino-5-fluoro-3-[(6R,8aS)-3-oxooctahydroindolizin-6-yl]imidazo[1,5-a]pyrazin-1-yl}-3-ethoxy-N-[1-methyl-5-(trifluoromethyl)-1H-pyrazol-3-yl]benzamide]
3 | 0.0249 µM | 0.682 µM | Nc1nccn2c([C@H]3CN4C(=O)OC[C@H]4CO3)nc(-c3ccc(C(=O)Nc4cc(C(F)(F)F)ccn4)cc3)c12 [Example 76, 4-(8-amino-3-((6R,8aR)-3-oxohexa hydrooxazolo[4,3-c][1,4]oxazin-6-yl)imidazo[1,5-a]pyrazin-1-yl)-N-(4-(trifluoromethyl)pyridin-2-yl)benzamide]
4 | 0.0001 µM | 0.0619 µM | Nc1nccn2c([C@@H]3CC[C@H]4CCC(=O)N4C3)nc(-c3ccc(C(=O)Nc4cc(C(F)(F)F)ccn4)cc3)c12 [Example 4, 4-(8-amino-3-((6R,8aS)-3-oxooctahydroindolizin-6-yl)imidazo[1,5-a]pyrazin-1-yl)-N-(4-(trifluoromethyl)pyridin-2-yl)benzamide]
5 | 0.0025 µM | – | N#Cc1ccnc(NC(=O)c2ccc(-c3nc([C@@H]4CC[C@H]5CCC(=O)N5C4)n4ccnc(N)c34)cc2F)c1 [Example 34, 4-{8-amino-3-[(6R,8aS)-3-oxooctahydroindolizin-6-yl]imidazo[1,5-a]pyrazin-1-yl}-N-(4-cyanopyridin-2-yl)-2-fluorobenzamide]
6 | 0.0606 µM | – | Nc1nccn2c([C@@H]3CC[C@H]4CCC(=O)N4C3)nc(-c3ccc(C(=O)Nc4cc(C5CCC5)ccn4)cc3)c12 [Example 7, 4-(8-amino-3-((6R,8aS)-3-oxooctahydroindolizin-6-yl)imidazo[1,5-a]pyrazin-1-yl)-N-(4-cyclobutylpyridin-2-yl)benzamide]
7 | 0.00064 µM | – | Cc1cc(-c2nc([C@@H]3CC[C@H]4CCC(=O)N4C3)n3ccnc(N)c23)ccc1C(=O)Nc1cc(C2CC2)ccn1 [Example 28, 4-{8-amino-3-[(6R,8aS)-3-oxooctahydroindolizin-6-yl]imidazo[1,5-a]pyrazin-1-yl}-N-(4-cyclopropylpyridin-2-yl)-2-methylbenzamide]

Second part, the compound before the results:

Row | Structure (SMILES) | IC50 [1] | IC50 [2]
8 | Cn1nc(NC(=O)c2ccc(-c3nc([C@@H]4CC[C@H]5CCC(=O)N5C4)n4ccnc(N)c34)c(OC3CNC3)c2)cc1C(F)(F)F [Example 149, 4-{8-amino-3-[(6R,8aS)-3-oxooctahydroindolizin-6-yl]imidazo[1,5-a]pyrazin-1-yl}-3-(azetidin-3-yloxy)-N-[1-methyl-5-(trifluoromethyl)-1H-pyrazol-3-yl]benzamide] | 0.0967 µM | ≥ 10 µM
9 | C[C@@H]1OC(=O)N2C[C@H](c3nc(-c4ccc(C(=O)Nc5cc(C(F)(F)F)ccn5)cc4)c4c(N)nccn34)CC[C@@H]12 [Example 48, 4-{8-amino-3-[(1S,6R,8aS)-1-methyl-3-oxohexahydro[1,3]oxazolo[3,4-a]pyridin-6-yl]imidazo[1,5-a]pyrazin-1-yl}-N-[4-(trifluoromethyl)pyridin-2-yl]benzamide] | 0.00014 µM | 0.0926 µM
10 | Nc1ncc(C(F)(F)F)n2c([C@@H]3CC[C@H]4CCC(=O)N4C3)nc(-c3ccc(C(=O)Nc4cc(C(F)(F)F)ccn4)cc3Cl)c12 [Example 211, 4-{8-amino-3-[(6R,8aS)-3-oxooctahydroindolizin-6-yl]-5-(trifluoromethyl)imidazo[1,5-a]pyrazin-1-yl}-3-chloro-N-[4-(trifluoromethyl)pyridin-2-yl]benzamide] | 0.009 µM | 0.269 µM
11 | Nc1nccn2c([C@@H]3CC[C@H]4CCC(=O)N4C3)nc(-c3ccc(C(=O)Nc4cc5ccccc5cn4)cc3)c12 [Example 106, 4-{8-amino-3-[(6R,8aS)-3-oxooctahydroindolizin-6-yl]imidazo[1,5-a]pyrazin-1-yl}-N-isoquinolin-3-ylbenzamide] | 0.00019 µM | 0.193 µM
12 | Nc1nccn2c([C@@H]3CC[C@H]4CCC(=O)N4C3)nc(-c3ccc(C(=O)Nc4cc(C(F)(F)F)ccn4)cc3OC3CCC3)c12 [Example 140, 4-{8-amino-3-[(6R,8aS)-3-oxooctahydroindolizin-6-yl]imidazo[1,5-a]pyrazin-1-yl}-3-(cyclobutyloxy)-N-[4-(trifluoromethyl)pyridin-2-yl]benzamide] | 0.0046 µM | 0.756 µM
13 | CN1CC[C@H]2CC[C@H](c3nc(-c4ccc(C(=O)Nc5cc(C(F)(F)F)ccn5)cc4)c4c(N)nccn34)CN2C1=O [Example 84, 4-(8-amino-3-((4aR,7S)-2-methyl-1-oxooctahydro-1H-pyrido[1,2-c]pyrimidin-7-yl)imidazo[1,5-a]pyrazin-1-yl)-N-(4-(trifluoromethyl)pyridin-2-yl)benzamide] | – | 0.155 µM
14 | CN1CC[C@@H]2CC[C@@H](c3nc(-c4ccc(C(=O)Nc5cc(C(F)(F)F)ccn5)cc4)c4c(N)nccn34)CN2C1=O [Example 83, 4-(8-amino-3-((4aS,7R)-2-methyl-1-oxooctahydro-1H-pyrido[1,2-c]pyrimidin-7-yl)imidazo[1,5-a]pyrazin-1-yl)-N-(4-(trifluoromethyl)pyridin-2-yl)benzamide] | – | 0.124 µM
15 | CCc1ccnc(NC(=O)c2ccc(-c3nc([C@@H]4CC[C@H]5CCC(=O)N5C4)n4ccnc(N)c34)cc2)c1 [Example 18, 4-{8-amino-3-[(6R,8aS)-3-oxooctahydroindolizin-6-yl]imidazo[1,5-a]pyrazin-1-yl}-N-(4-ethylpyridin-2-yl)benzamide] | 0.00016 µM | 0.0635 µM
16 | Nc1nccn2c([C@@H]3CC[C@H]4C[C@@H](O)C(=O)N4C3)nc(-c3ccc(C(=O)Nc4cc(C(F)(F)F)ccn4)cc3)c12 [Example 59, 4-{8-amino-3-[(2R,6R,8aS)-2-hydroxy-3-oxooctahydroindolizin-6-yl]imidazo[1,5-a]pyrazin-1-yl}-N-[4-(trifluoromethyl)pyridin-2-yl]benzamide] | 0.00013 µM | 0.398 µM
17 | Nc1nccn2c([C@@H]3CC[C@H]4CCC(=O)N4C3)nc(-c3ccc(C(=O)Nc4ccccn4)cc3)c12 [Example 6, 4-(8-amino-3-((6R,8aS)-3-oxooctahydroindolizin-6-yl)imidazo[1,5-a]pyrazin-1-yl)-N-(pyridin-2-yl)benzamide] | 0.002 µM | 0.184 µM
18 | Nc1nccn2c([C@@H]3CC[C@H]4CCC(=O)N4C3)nc(-c3ccc(C(=O)Nc4cc(C(F)(F)F)ccn4)cc3OC3CCCC3)c12 [Example 141, 4-{8-amino-3-[(6R,8aS)-3-oxooctahydroindolizin-6-yl]imidazo[1,5-a]pyrazin-1-yl}-3-(cyclopentyloxy)-N-[4-(trifluoromethyl)pyridin-2-yl]benzamide] | 0.0237 µM | 0.824 µM
19 | Cn1nc(NC(=O)c2cc(OC3CC3)c(-c3nc([C@@H]4CC[C@H]5CCC(=O)N5C4)n4c(Cl)cnc(N)c34)cc2F)cc1C(F)(F)F [Example 150, 4-{8-amino-5-chloro-3-[(6R,8aS)-3-oxooctahydroindolizin-6-yl]imidazo[1,5-a]pyrazin-1-yl}-5-(cyclopropyloxy)-2-fluoro-N-[1-methyl-5-(trifluoromethyl)-1H-pyrazol-3-yl]benzamide] | 0.0018 µM | 2.3 µM
20 | CCOc1cc(C(=O)Nc2cc(C(F)(F)F)ccn2)ccc1-c1nc([C@@H]2CC[C@H]3CC(C)(C)C(=O)N3C2)n2ccnc(N)c12 [Example 113, 4-{8-amino-3-[(6R,8aS)-2,2-dimethyl-3-oxooctahydroindolizin-6-yl]imidazo[1,5-a]pyrazin-1-yl}-3-ethoxy-N-[4-(trifluoromethyl)pyridin-2-yl]benzamide] | 0.00054 µM | –
21 | COc1cc(C(=O)Nc2cc(C(F)(F)F)ccn2)ccc1-c1nc([C@@H]2CC[C@H]3CCC(=O)N3C2)n2ccnc(N)c12 [Example 88, 4-(8-amino-3-((6R,8aS)-3-oxooctahydroindolizin-6-yl)imidazo[1,5-a]pyrazin-1-yl)-3-methoxy-N-(4-(trifluoromethyl)pyridin-2-yl)benzamide] | – | 0.699 µM
22 | Cc1cc(-c2nc([C@@H]3CC[C@H]4CCC(=O)N4C3)n3ccnc(N)c23)ccc1C(=O)Nc1cc(C#N)ccn1 [Example 36, 4-{8-amino-3-[(6R,8aS)-3-oxooctahydroindolizin-6-yl]imidazo[1,5-a]pyrazin-1-yl}-N-(4-cyanopyridin-2-yl)-2-methylbenzamide] | 0.00098 µM | –
